In ChEMBL document CHEMBL5385845, “Novel coumarin aminophosphonates as potential multitargeting antibacterial agents against Staphylococcus aureus” (Eur J Med Chem, 2023):
Converted amounts (≈) assume the structure as drawn.

How the values were obtained:
Assay type in all cases: functional
Staphylococcus aureus [1] = assay: Antibacterial activity against Staphylococcus aureus ATCC 25923 assessed as inhibition of bacterial growth
Staphylococcus aureus [2] = assay: Antibacterial activity against Staphylococcus aureus assessed as inhibition of bacterial growth
Acinetobacter baumannii = assay: Antibacterial activity against Acinetobacter baumannii assessed as inhibition of bacterial growth
Enterococcus faecalis = assay: Antibacterial activity against Enterococcus faecalis assessed as inhibition of bacterial growth
Staphylococcus aureus [3] = assay: Antibacterial activity against Staphylococcus aureus ATCC 29213 assessed as inhibition of bacterial growth
Staphylococcus aureus [4] = assay: Antibacterial activity against methicillin resistant Staphylococcus aureus N315 assessed as inhibition of bacterial growth
Pseudomonas aeruginosa [5] = assay: Antibacterial activity against Pseudomonas aeruginosa ATCC 27853 assessed as inhibition of bacterial growth
Escherichia coli [6] = assay: Antibacterial activity against Escherichia coli ATCC 25922 assessed as inhibition of bacterial growth
Escherichia coli [7] = assay: Antibacterial activity against Escherichia coli assessed as inhibition of bacterial growth
Klebsiella pneumoniae = assay: Antibacterial activity against Klebsiella pneumoniae assessed as inhibition of bacterial growth
Pseudomonas aeruginosa [8] = assay: Antibacterial activity against Pseudomonas aeruginosa assessed as inhibition of bacterial growth

SMILES	MIC (Staphylococcus aureus [1]) [µg/mL]	MIC (Staphylococcus aureus [2]) [µg/mL]	MIC (Acinetobacter baumannii) [µg/mL]	MIC (Enterococcus faecalis) [µg/mL]	MIC (Staphylococcus aureus [3]) [µg/mL]	MIC (Staphylococcus aureus [4]) [µg/mL]	MIC (Pseudomonas aeruginosa [5]) [µg/mL]	MIC (Escherichia coli [6]) [µg/mL]	MIC (Escherichia coli [7]) [µg/mL]	MIC (Klebsiella pneumoniae) [µg/mL]	MIC (Pseudomonas aeruginosa [8]) [µg/mL]
CCOP(=O)(OCC)C(Nc1ccc2c(C)cc(=O)oc2c1)c1ccc(Cl)cc1Cl (centres undefined)	128 (≈ 272 µM)	128 (≈ 272 µM)	64 (≈ 136 µM)	64 (≈ 136 µM)	128 (≈ 272 µM)	128 (≈ 272 µM)	64 (≈ 136 µM)	128 (≈ 272 µM)	32 (≈ 68 µM)	64 (≈ 136 µM)	128 (≈ 272 µM)
CCCCc1nc(Cl)c(C(Nc2ccc3c(C)cc(=O)oc3c2)P(=O)(OCC)OCC)n1Cc1ccc(F)cc1F (centres undefined)	128 (≈ 211 µM)	32 (≈ 52.6 µM)	64 (≈ 105 µM)	128 (≈ 211 µM)	64 (≈ 105 µM)	64 (≈ 105 µM)	128 (≈ 211 µM)	128 (≈ 211 µM)	128 (≈ 211 µM)	128 (≈ 211 µM)	256 (≈ 421 µM)
CCOP(=O)(OCC)C(Nc1ccc2c(C)cc(=O)oc2c1)c1ccccc1F (centres undefined)	64 (≈ 153 µM)	16 (≈ 38.2 µM)	64 (≈ 153 µM)	64 (≈ 153 µM)	64 (≈ 153 µM)	64 (≈ 153 µM)	32 (≈ 76.3 µM)	64 (≈ 153 µM)	128 (≈ 305 µM)	128 (≈ 305 µM)	256 (≈ 610 µM)
CCOP(=O)(OCC)C(Nc1ccc2c(C)cc(=O)oc2c1)c1ccc(O)c(OC)c1 (centres undefined)	64 (≈ 143 µM)	64 (≈ 143 µM)	128 (≈ 286 µM)	16 (≈ 35.8 µM)	128 (≈ 286 µM)	128 (≈ 286 µM)	64 (≈ 143 µM)	64 (≈ 143 µM)	128 (≈ 286 µM)	256 (≈ 572 µM)	256 (≈ 572 µM)
CCOP(=O)(OCC)C(Nc1ccc2c(C)cc(=O)oc2c1)c1cc(O)c2c(c1)C(=O)c1cccc(O)c1C2=O (centres undefined)	4 (≈ 7.1 µM)	8 (≈ 14.2 µM)	16 (≈ 28.4 µM)	32 (≈ 56.8 µM)	8 (≈ 14.2 µM)	4 (≈ 7.1 µM)	8 (≈ 14.2 µM)	4 (≈ 7.1 µM)	8 (≈ 14.2 µM)	32 (≈ 56.8 µM)	8 (≈ 14.2 µM)
CCCCc1nc(Cl)c(C(Nc2ccc3c(C)cc(=O)oc3c2)P(=O)(OCC)OCC)n1Cc1ccccc1F (centres undefined)	64 (≈ 108 µM)	128 (≈ 217 µM)	32 (≈ 54.2 µM)	128 (≈ 217 µM)	32 (≈ 54.2 µM)	64 (≈ 108 µM)	64 (≈ 108 µM)	256 (≈ 434 µM)	32 (≈ 54.2 µM)	128 (≈ 217 µM)	256 (≈ 434 µM)
CCOP(=O)(OCC)C(Nc1ccc2c(C)c(Cl)c(=O)oc2c1)c1cccc(O)c1 (centres undefined)	32 (≈ 70.8 µM)	16 (≈ 35.4 µM)	32 (≈ 70.8 µM)	64 (≈ 142 µM)	32 (≈ 70.8 µM)	32 (≈ 70.8 µM)	128 (≈ 283 µM)	16 (≈ 35.4 µM)	128 (≈ 283 µM)	128 (≈ 283 µM)	64 (≈ 142 µM)
CCOP(=O)(OCC)C(Nc1ccc2c(C)c(C)c(=O)oc2c1)c1cccc(O)c1 (centres undefined)	64 (≈ 148 µM)	32 (≈ 74.2 µM)	256 (≈ 593 µM)	32 (≈ 74.2 µM)	16 (≈ 37.1 µM)	128 (≈ 297 µM)	16 (≈ 37.1 µM)	64 (≈ 148 µM)	32 (≈ 74.2 µM)	64 (≈ 148 µM)	128 (≈ 297 µM)
CCCCc1nc(Cl)c(C(Nc2ccc3c(C)cc(=O)oc3c2)P(=O)(OCC)OCC)n1Cc1ccc(Cl)cc1Cl (centres undefined)	32 (≈ 49.9 µM)	64 (≈ 99.9 µM)	128 (≈ 200 µM)	128 (≈ 200 µM)	128 (≈ 200 µM)	128 (≈ 200 µM)	256 (≈ 399 µM)	128 (≈ 200 µM)	64 (≈ 99.9 µM)	128 (≈ 200 µM)	64 (≈ 99.9 µM)
CCOP(=O)(OCC)C(Nc1ccc2c(C)cc(=O)oc2c1)c1nccs1 (centres undefined)	128 (≈ 313 µM)	16 (≈ 39.2 µM)	32 (≈ 78.4 µM)	128 (≈ 313 µM)	32 (≈ 78.4 µM)	64 (≈ 157 µM)	8 (≈ 19.6 µM)	64 (≈ 157 µM)	128 (≈ 313 µM)	256 (≈ 627 µM)	64 (≈ 157 µM)
CCCCc1nc(Cl)c(C(Nc2ccc3c(C)cc(=O)oc3c2)P(=O)(OCC)OCC)n1CO (centres undefined)	16 (≈ 31.3 µM)	2 (≈ 3.91 µM)	64 (≈ 125 µM)	128 (≈ 250 µM)	128 (≈ 250 µM)	2 (≈ 3.91 µM)	32 (≈ 62.5 µM)	16 (≈ 31.3 µM)	128 (≈ 250 µM)	16 (≈ 31.3 µM)	256 (≈ 500 µM)
CCOP(=O)(OCC)C(Nc1ccc2c(C)cc(=O)oc2c1)c1ccc(O)c([N+](=O)[O-])c1 (centres undefined)	64 (≈ 138 µM)	32 (≈ 69.2 µM)	64 (≈ 138 µM)	64 (≈ 138 µM)	32 (≈ 69.2 µM)	256 (≈ 554 µM)	128 (≈ 277 µM)	128 (≈ 277 µM)	64 (≈ 138 µM)	128 (≈ 277 µM)	32 (≈ 69.2 µM)
CCOP(=O)(OCC)C(Nc1ccc2c(C)cc(=O)oc2c1)c1cccc(Cl)c1O (centres undefined)	64 (≈ 142 µM)	32 (≈ 70.8 µM)	128 (≈ 283 µM)	128 (≈ 283 µM)	128 (≈ 283 µM)	64 (≈ 142 µM)	64 (≈ 142 µM)	64 (≈ 142 µM)	128 (≈ 283 µM)	128 (≈ 283 µM)	16 (≈ 35.4 µM)
CCOP(=O)(OCC)C(Nc1ccc2c(C)cc(=O)oc2c1)c1ccc(C(=O)O)cc1 (centres undefined)	128 (≈ 287 µM)	64 (≈ 144 µM)	128 (≈ 287 µM)	128 (≈ 287 µM)	64 (≈ 144 µM)	256 (≈ 575 µM)	64 (≈ 144 µM)	256 (≈ 575 µM)	32 (≈ 71.8 µM)	64 (≈ 144 µM)	16 (≈ 35.9 µM)
CCOP(=O)(OCC)C(Nc1ccc2c(C)cc(=O)oc2c1)c1ccc(C(F)(F)F)cc1 (centres undefined)	256 (≈ 545 µM)	256 (≈ 545 µM)	128 (≈ 273 µM)	128 (≈ 273 µM)	256 (≈ 545 µM)	256 (≈ 545 µM)	64 (≈ 136 µM)	64 (≈ 136 µM)	128 (≈ 273 µM)	128 (≈ 273 µM)	64 (≈ 136 µM)
CCOP(=O)(OCC)C(Nc1ccc2c(C)cc(=O)oc2c1)c1ccc(O)c(Br)c1 (centres undefined)	128 (≈ 258 µM)	64 (≈ 129 µM)	128 (≈ 258 µM)	128 (≈ 258 µM)	128 (≈ 258 µM)	256 (≈ 516 µM)	64 (≈ 129 µM)	128 (≈ 258 µM)	64 (≈ 129 µM)	128 (≈ 258 µM)	32 (≈ 64.5 µM)
CCOP(=O)(OCC)C(Nc1ccc2c(C)cc(=O)oc2c1)c1ccc(C#N)cc1 (centres undefined)	256 (≈ 600 µM)	128 (≈ 300 µM)	128 (≈ 300 µM)	64 (≈ 150 µM)	64 (≈ 150 µM)	128 (≈ 300 µM)	128 (≈ 300 µM)	128 (≈ 300 µM)	128 (≈ 300 µM)	128 (≈ 300 µM)	64 (≈ 150 µM)
CCCCc1nc(Cl)c(C(Nc2ccc3c(C)cc(=O)oc3c2)P(=O)(OCC)OCC)[nH]1 (centres undefined)	16 (≈ 33.2 µM)	32 (≈ 66.4 µM)	128 (≈ 266 µM)	64 (≈ 133 µM)	256 (≈ 531 µM)	128 (≈ 266 µM)	256 (≈ 531 µM)	64 (≈ 133 µM)	32 (≈ 66.4 µM)	128 (≈ 266 µM)	64 (≈ 133 µM)
CCOP(=O)(OCC)C(Nc1ccc2c(C)cc(=O)oc2c1)c1ccc(Cl)cc1 (centres undefined)	4 (≈ 9.18 µM)	256 (≈ 587 µM)	64 (≈ 147 µM)	64 (≈ 147 µM)	128 (≈ 294 µM)	128 (≈ 294 µM)	8 (≈ 18.4 µM)	4 (≈ 9.18 µM)	128 (≈ 294 µM)	64 (≈ 147 µM)	16 (≈ 36.7 µM)
